The results in this text go back to ChEMBL document CHEMBL3272151, “Quantitative structure-activity relationship of chymotrypsin-ligand interactions” (J Med Chem, 1977).

Common to all, as to conditions: Homo sapiens
Assay [1] in a line: Binding affinity to chymotrypsin (unknown origin).
The nature of assay [2]: Binding affinity to chymotrypsin (unknown origin) assessed as hydrolysis.
Assay [3] is described as follows: Binding affinity to chymotrypsin (unknown origin) assessed as deacetylation.

The molecule `CCC[C@H](NC(=O)CCl)C(=O)OC` showed a log(1/Km) in assay [1] of 2.3. For the molecule `CC(C)COC(=O)CNC(=O)c1ccccc1`, in assay [1], the log(1/Km) is 2.62. In assay [2], the logKcat is -0.78. Turning to `COC(=O)[C@H](NC(=O)c1ccccc1)C(C)C`, the log1/Ki in assay [1] was determined as 2.28. For the molecule `COC(=O)[C@@H](C)NC(=O)c1ccncc1`, the log(1/Km) in assay [1] worked out at 1.57.

As to `O=C(Oc1ccc([N+](=O)[O-])cc1)c1cccc([N+](=O)[O-])c1`, in assay [3], the log K is -2.85. Turning to `CC(=O)N[C@H](C(=O)Oc1ccc([N+](=O)[O-])cc1)C(C)C`, the log(1/Km) in assay [1] amounted to 3.31. Regarding `CC(=O)N[C@@H](Cc1ccccc1)C(=O)O[C@@H](C)C1CCCCC1`, the log(1/Km) in assay [1] turned out to be 3.28. In assay [2], the logKcat turned out to be 1.37. `O=C(Cc1c[nH]c2ccccc12)Oc1ccc([N+](=O)[O-])cc1`: in assay [3], the log K is -2.52. As for `CCOC(=O)CNC(=O)c1ccccc1`, the log(1/Km) in assay [1] worked out at 2.64. As for `CCOC(=O)[C@@H](Cc1ccc(O)cc1)NC(=O)c1cccnc1`, in assay [1], the log1/Ki was 3.1. The molecule `CC(C)C[C@H](NC(=O)OCc1ccccc1)C(=O)Oc1ccc([N+](=O)[O-])cc1` gave a log(1/Km) in assay [1] of 5.32. Moreover, the log K in assay [3] stood at 0.92. With `CC(=O)N[C@@H](C)C(=O)Oc1ccc([N+](=O)[O-])cc1`, the log(1/Km) in assay [1] was determined as 3.32. Take `CCCCCCC(=O)Oc1ccc([N+](=O)[O-])cc1`: the log K in assay [3] was -1.21. Molecule `C[C@@H](NC(=O)OCc1ccccc1)C(=O)Oc1ccc([N+](=O)[O-])cc1` registered a log(1/Km) in assay [1] of 5.08. Further, the log K in assay [3] is -1.05. `COC(=O)[C@@H](C)NC(=O)c1cccs1` gave a log(1/Km) in assay [1] of 2.16. Molecule `CCC(=O)NCC(=O)Oc1ccc([N+](=O)[O-])cc1` yielded a log(1/Km) in assay [1] of 3.95. Besides, in assay [3], the log K is -0.25. Molecule `C[C@@H](NC=O)C(=O)Oc1ccc([N+](=O)[O-])cc1` gave a log(1/Km) in assay [1] of 5.21. In assay [3], the log K is -1.14. `CCOC(=O)C(NC(C)=O)C(=O)OCC`: the log(1/Km) in assay [1] was 1.51. Also, the logKcat in assay [2] was -0.15. Molecule `CCC[C@H](NC(C)=O)C(=O)OCCCl` gave a log(1/Km) in assay [1] of 3.1. The logKcat in assay [2] was found to be 0.57.

The molecule `O=C(CNC(=O)c1ccccc1)Oc1ccc(Cl)cc1` yielded a log(1/Km) in assay [1] of 3.94. Moreover, the logKcat in assay [2] was -0.31. Take `CCCCCC(=O)Oc1ccc([N+](=O)[O-])cc1`: the log K in assay [3] is -1.44.

In assay [1], `COC(=O)[C@H](C)NC(=O)c1ccncc1` gave a log(1/Km) of 1.54. Moreover, the logKcat in assay [2] was -0.38. For `CCC[C@@H](NC(=O)CCl)C(=O)OC`, the log1/Ki in assay [1] was found to be 1.23. In assay [1], `CCC[C@H](NC(C)=O)C(=O)OC(C)C` yielded a log(1/Km) of 1.51. Further, the logKcat in assay [2] came to 0.46.

Consider `O=COc1ccc([N+](=O)[O-])cc1`, for which the log K in assay [3] is 0.39. `O=C(CNC(=O)c1ccccc1)Oc1cccc([N+](=O)[O-])c1`: the log(1/Km) in assay [1] came out at 4.17. In addition, the logKcat in assay [2] is -0.28.

Take `COC(=O)[C@@H](Cc1ccccc1)NC(C)=O`: the log1/Ki in assay [1] turned out to be 2.64. Molecule `CC(=O)NCC(=O)O[C@H](C)c1ccccc1` showed a log(1/Km) in assay [1] of 3.66. Moreover, in assay [2], the logKcat was -0.6. The molecule `O=C(N[C@H](Cc1ccccc1)C(=O)Oc1ccc([N+](=O)[O-])cc1)OCc1ccccc1` yielded a log(1/Km) in assay [1] of 6.42. Also, the log K in assay [3] was -0.74. In assay [1], `CC(=O)N[C@H](C(=O)OCCCl)C(C)C` came in with a log(1/Km) of 1.72. Also, in assay [2], the logKcat is -0.64. With `CC(C)CC(=O)Oc1ccc([N+](=O)[O-])cc1`, the log K in assay [3] was -2.9. In the case of `CCCC(=O)Oc1ccc([N+](=O)[O-])cc1`, the log K in assay [3] is -2.22. Consider `O=C(CNC(=O)c1ccccc1)Oc1ccc(F)cc1`, for which, in assay [1], the log(1/Km) is 3.85. In addition, the logKcat in assay [2] is -0.28. For the molecule `O=C(CCc1c[nH]c2ccccc12)Oc1ccc([N+](=O)[O-])cc1`, the log K in assay [3] is -0.47. `CCOC(=O)[C@@H](Cc1ccc(O)cc1)NC(C)=O` returned a log1/Ki in assay [1] of 2.4. In assay [1], `O=C(CNC(=O)c1ccccc1)Oc1ccccc1` registered a log(1/Km) of 3.87. Also, the logKcat in assay [2] is -0.31. On to `COC(=O)[C@@H](C)NC(=O)c1ccccc1N`, for which, in assay [1], the log(1/Km) amounted to 2.8. For the molecule `CCCC[C@H](NC(=O)OCc1ccccc1)C(=O)Oc1ccc([N+](=O)[O-])cc1`, the log(1/Km) in assay [1] was found to be 5.24. Further, the log K in assay [3] is 1.1. Regarding `CC(C)[C@@H](NC(=O)OCc1ccccc1)C(=O)Oc1ccc([N+](=O)[O-])cc1`, the log(1/Km) in assay [1] turned out to be 5.13. Also, the log K in assay [3] was -2.1. In assay [1], `COC(=O)[C@H](CC1CCCCC1)NC(C)=O` gave a log(1/Km) of 3.72. Also, the logKcat in assay [2] amounted to 1.18. As for `O=C(CCCc1c[nH]c2ccccc12)Oc1ccc([N+](=O)[O-])cc1`, the log K in assay [3] is -0.83. `C[C@H](NC=O)C(=O)Oc1ccc([N+](=O)[O-])cc1`: in assay [1], the log(1/Km) was determined as 4.88. Also, the log K in assay [3] is -0.61. The molecule `CC(C)[C@H](NC(=O)OCc1ccccc1)C(=O)Oc1ccc([N+](=O)[O-])cc1` showed a log(1/Km) in assay [1] of 4.75. Moreover, the log K in assay [3] is -0.93.

`O=C(CCCl)Oc1ccc([N+](=O)[O-])cc1`: the log K in assay [3] is -1.67. Regarding `COc1ccc(OC(=O)[C@H](Cc2ccccc2)NS(C)(=O)=O)cc1`, the log(1/Km) in assay [1] turned out to be 4.82. For the same molecule, the logKcat in assay [2] is 1.54. Take `CC(=O)c1ccc(OC(=O)CNC(=O)c2ccccc2)cc1`: in assay [1], the log(1/Km) was determined as 4.51. Moreover, in assay [2], the logKcat is -0.28. For `CC(=O)Oc1ccc([N+](=O)[O-])cc1`, the log K in assay [3] was -2. In assay [1], `CC[C@@H](C)OC(=O)[C@H](Cc1ccccc1)NC(C)=O` came in with a log(1/Km) of 2.76. Besides, the logKcat in assay [2] was 1.98. For `COC(=O)[C@H](C)NC(C)=O`, in that order: 0.21 and 0.11. `COC(=O)[C@H](NC(=O)CCl)C(C)C` came in with a log1/Ki in assay [1] of 0.77. In assay [1], `CCCCOC(=O)CNC(=O)c1ccccc1` returned a log(1/Km) of 2.95. The logKcat in assay [2] was -0.76. Take `CS(=O)(=O)N[C@@H](Cc1ccccc1)C(=O)Oc1ccc([N+](=O)[O-])cc1`: the log(1/Km) in assay [1] amounted to 5.37. Also, the log K in assay [2] worked out at 1.56. In the case of `CC(=O)NCCCC(=O)Oc1ccc([N+](=O)[O-])cc1`, the log K in assay [3] was -2.21. Molecule `NC(=O)C[C@@H](NC(=O)OCc1ccccc1)C(=O)Oc1ccc([N+](=O)[O-])cc1` came in with a log(1/Km) in assay [1] of 5.84. Moreover, in assay [3], the log K is -1.65. Take `CC(C)(C)C(=O)Oc1ccc([N+](=O)[O-])cc1`: the log K in assay [3] is -3.69.

As to `C[C@H](NC(=O)OCc1ccccc1)C(=O)Oc1ccc([N+](=O)[O-])cc1`, the log(1/Km) in assay [1] came to 4.7. Moreover, the log K in assay [3] is 0.48. For `CCCCCCCC(=O)Oc1ccc([N+](=O)[O-])cc1`, the log K in assay [3] is -1.47.

On to `O=C(CCl)Oc1ccc([N+](=O)[O-])cc1`, for which, in assay [3], the log K turned out to be 0.47. In assay [1], `COC(=O)[C@H](NC(C)=O)C(C)C` displayed a log1/Ki of 0.71. `CCC[C@@H](NC(=O)OCc1ccccc1)C(=O)Oc1ccc([N+](=O)[O-])cc1` yielded a log(1/Km) in assay [1] of 5.5. Further, the log K in assay [3] was -0.82. Consider `COC(=O)[C@@H](Cc1ccccc1)NC=O`, for which, in assay [1], the log(1/Km) was determined as 3.6. `CCC[C@@H](NC(=O)c1ccccc1)C(=O)OC` gave a log1/Ki in assay [1] of 2.75.

`COC(=O)[C@@H](C)NC(=O)c1ccccn1`: in assay [1], the log(1/Km) came to 1.77. For `O=C(CCc1ccccc1)Oc1ccc([N+](=O)[O-])cc1`, the log K in assay [3] was -0.73.

As to `O=C(CCCCCl)Oc1ccc([N+](=O)[O-])cc1`, the log K in assay [3] was -1.37. Regarding `CC(C)(C)CC(=O)Oc1ccc([N+](=O)[O-])cc1`, the log K in assay [3] was -3.82. Molecule `CCC[C@@H](NC(C)=O)C(=O)OC` had a log1/Ki in assay [1] of 0.95. Molecule `O=C(CNC(=O)OCc1ccccc1)Oc1ccc([N+](=O)[O-])cc1` had a log(1/Km) in assay [1] of 5.31. Also, in assay [3], the log K is -0.39.

Turning to `CCC(=O)Oc1ccc([N+](=O)[O-])cc1`, in assay [3], the log K was -2.1. For the molecule `CCCC(=O)NCC(=O)Oc1ccc([N+](=O)[O-])cc1`, the log(1/Km) in assay [1] is 3.87. Besides, the log K in assay [3] was -0.06.

`CCC[C@H](NC(=O)OCc1ccccc1)C(=O)Oc1ccc([N+](=O)[O-])cc1` returned a log(1/Km) in assay [1] of 5.57. Further, in assay [3], the log K is 0.19.

Take `O=C(CCCCc1ccccc1)Oc1ccc([N+](=O)[O-])cc1`: the log K in assay [3] is -1.68.

For `O=C(CCCc1ccccc1)Oc1ccc([N+](=O)[O-])cc1`, the log K in assay [3] was -0.87. For the molecule `NC(=O)C[C@H](NC(=O)OCc1ccccc1)C(=O)Oc1ccc([N+](=O)[O-])cc1`, the log(1/Km) in assay [1] was found to be 4.87. The log K in assay [3] was 1.53. In assay [1], `CC[C@H](NC(=O)OCc1ccccc1)C(=O)Oc1ccc([N+](=O)[O-])cc1` came in with a log(1/Km) of 5.74. Besides, the log K in assay [3] is 0.43. For the molecule `O=C(Cc1ccccc1)Oc1ccc([N+](=O)[O-])cc1`, the log K in assay [3] is -1.65. For `O=C(CCCCl)Oc1ccc([N+](=O)[O-])cc1`, the log K in assay [3] is -1.27. In turn, `CC(C)C[C@@H](NC(=O)OCc1ccccc1)C(=O)Oc1ccc([N+](=O)[O-])cc1` displayed a log(1/Km) in assay [1] of 5.62. Further, the log K in assay [3] was -0.96.

As to `CC[C@@H](NC(=O)OCc1ccccc1)C(=O)Oc1ccc([N+](=O)[O-])cc1`, in assay [1], the log(1/Km) worked out at 5.71. Further, the log K in assay [3] is -1.45. With `CCOC(=O)C[C@H](NC(C)=O)C(=O)OCC`, the log(1/Km) in assay [1] is 1.64.

For `O=C(CI)Oc1ccc([N+](=O)[O-])cc1`, the log K in assay [3] was -0.1.

In assay [1], `O=CNCC(=O)Oc1ccc([N+](=O)[O-])cc1` registered a log(1/Km) of 4.8. Besides, in assay [3], the log K is -0.61. In the case of `COC(=O)[C@@H](C)NC(=O)c1cccnc1`, in assay [1], the log(1/Km) worked out at 2.22. As for `CC(C)C(=O)Oc1ccc([N+](=O)[O-])cc1`, in assay [3], the log K was -2.45.

In assay [1], `CC[C@@H](C)OC(=O)CNC(=O)c1ccccc1` came in with a log(1/Km) of 2.7. On to `CCCCC(=O)Oc1ccc([N+](=O)[O-])cc1`, for which the log K in assay [3] is -1.77. In assay [1], `COC(=O)[C@@H](C)NC(=O)c1ccccc1` gave a log(1/Km) of 2.48. For `CCOC(=O)[C@H](C)NC(C)=O`, the log(1/Km) in assay [1] was found to be 0.6. Turning to `COCC(=O)Oc1ccc([N+](=O)[O-])cc1`, in assay [3], the log K was -0.46. `O=C(N[C@@H](Cc1ccccc1)C(=O)Oc1ccc([N+](=O)[O-])cc1)OCc1ccccc1`: the log(1/Km) in assay [1] came to 6.32. The log K in assay [3] was 1.59.
